“Also recorded” adds a separate entry of the source.
Test system: body temperature rhythm in humans (shift work)
Assay: Example 10: Subject F, simulated rapid rotating shift work roster, double blind melatonin vs placebo, rectal temperature
Assay type: in vivo, human
Settings: for sleep induction: from diary descriptions
Method: The subject was a […] psychology lecturer who had never taken Melatonin before. In order to evaluate the effects of Melatonin on adaptation to rotating shift work conditions the subject undertook three, eight hour phase advances in their sleep-wake/work-rest schedule at six day intervals. Melatonin was administered under double blind conditions on the first phase advance and placebo taken on the second. […] This entrainment was not a secondary consequence of sleep induction. The data can be taken as evidence for Melatonin as an effective chronobiotic for adaptation to shiftwork.
The experiment was designed to incorporate the salient features of a rapidly rotating shift-work schedule combined with aspects of lighting changes encountered on destination arrival after intercontinental jet flight. […] The experimental protocol differed from that normally found in shift work in that the subject had to spend the dark period in bed in an isolation unit irrespective of whether sleepiness was felt or not; whereas, no sleep was allowed during the light period no matter how tired the subject felt. During the light period the subject was free to leave the isolation unit to engage in work or leisure related activities.
The experiment was carried out over the long vacation, the isolated unit being situated half below ground under one of the residential colleges on La Trobe University Campus. The area was, therefore, fairly well buffered against external noise and a ventilation exhaust fan was continuously running, which aided extraneous noise reduction. Windows located high up on the walls of the kitchen alcove and shower/toilet rooms were blacked out. The main sleeping-living room was illuminated by two fluorescent tubes (40 watt) while the alcove and bathroom areas had one, 40 watt, fluorescent light in each. All lights were controlled by a single time clock set to give an LD 16:8 cycle, lights on at 0730 hours during baseline. A bedside lamp was used for reading during the light period. No lighting was allowed during the dark period for any reason. Therefore, events such as quenching of thirst and urination had to take place in total darkness. Temperature of the isolation area was maintained within the range 20°-22° C. throughout the experiment. During stage A and pre-baseline breakfast was ingested between 0800 and 0900, lunch between 1300 and 1400, and dinner between 1800 and 2000. During stages B and C meals and intermeal intervals were scheduled for equivalent times (relative to lights on) to those during stage A.
During stages B and C the subject was instructed to take one capsule just prior to lights off. If still awake one hour later, the subject was to take a second capsule. Similar instructions applied to the second and third hours after lights-off but no capsule was to be taken during the last four hours of darkness i.e. maximum number of capsules to be taken was four. Capsules were refrigerated and had to be taken in complete darkness once lights were off. A double blind procedure was employed with stage B being drug (Melatonin, Sigma, 5mg/capsule) and stage C being placebo (sucrose filled capsule). No capsules were taken on the final dark period at the end of each stage i.e. days 10 and 16.
Rectal temperature was sampled every 12 minutes using a Vitalog PMS 8 portable microcomputer. A diary of life events was kept. These included details of sleep, work, leisure, meals, beverages, urination and defecation. […]

COc1ccc2[nH]cc(CCNC(C)=O)c2c1 [melatonin, 5-methoxy-N-acetyltryptamine]
time to fall asleep after lights out (diary, Table 2) (Subject F, 22.1.84, first complete day after first phase shift, capsule taken 1515): approx. 30 minutes | time by which temperature rhythm was re-established and in phase with the new light-dark cycle (Subject F, first 8 hour advance of darkness): by the third complete day after the phase shift (day 8) | entrainment of body (rectal) temperature rhythm (Subject F, first 8 hour phase advance, 5 mg/capsule before lights off, double blind, contrast to placebo): good and accelerated entrainment of the body temperature rhythm; also recorded: phase shifted the rectal temperature rhythm | sleep induction (Subject F): did not have the same potent sleep induction as reported by other subjects after intercontinental flight | sleep induction (Subject F, listed as Melatonin): aided sleep induction

Source: patent US4665086A, “Method for minimizing disturbances in circadian rhythms of bodily performance and function” (priority 1983, dated 1987)
